Earlier results on 9 compounds are cited in US20090312358A1, “METHOD FOR MANAGEMENT OF DIARRHEA” (TRUSTEES OF BOSTON UNIVERSITY, priority 2006, published 2009).

Like-named read-outs stand apart in the source and are kept apart here.

The conditions of data set [1]: compared to methylnaltrexone.
The conditions of data set [2]: for elimination half-life: in vivo; for time to peak plasma levels: after oral administration.
The conditions of data set [3]: for antidiarrheal potency relative to codeine: compared to codeine.
For data set [4] the following is noted: repeated dosing in mice.
The conditions of data set [5]: oral.

Regarding `C[C@H]1CN(C[C@H](Cc2ccccc2)C(=O)NCC(=O)O)CC[C@@]1(C)c1cccc(O)c1` [alvimopan, Alvimopan], in data set [1], the “potency in reversing the effects of morphine in the gastrointestinal tract relative to methylnaltrexone” value is “approximately 200 times”.

Turning to `COc1ccc2c3c1O[C@H]1[C@@H](O)C=C[C@H]4[C@@H](C2)N(C)CC[C@@]341` [codeine], the elimination half-life in data set [2] was around 3 h.

Take `N#CC(CCN1CCC(C(=O)O)(c2ccccc2)CC1)(c1ccccc1)c1ccccc1` [difenoxin]: in data set [3], the “antidiarrheal potency relative to codeine” value is “seventy-seven”. Moreover, the “antidiarrheal potency relative to diphenoxylate” value in data set [3] (compared to diphenoxylate) is recorded as “five”. Also, the “apparent half-life of difenoxin produced by de-esterification of diphenoxylate” value in data set [2] (healthy volunteers) is reported as “approximately 50 minutes”. The elimination half-life in data set [2] is 7 to 12 h.

Regarding `CCOC(=O)C1(c2ccccc2)CCN(CCC(C#N)(c2ccccc2)c2ccccc2)CC1` [diphenoxylate], the “antidiarrheal potency relative to codeine” value in data set [3] was “fifteen”. Further, in data set [2], the “time to peak plasma levels” value was “approximately 2 hours”.

`CN(C)C(=O)C(CCN1CCC(O)(c2ccc(Cl)cc2)CC1)(c1ccccc1)c1ccccc1` [loperamide, Loperamide]: the “development of tolerance to antimotility effects” value in data set [4] is recorded as “two”. Further, in data set [5] (acute diarrhea), the “time to achieve symptomatic control of acute diarrhea” value is 9 to 20 h. Besides, in data set [2], the “time to peak plasma levels” value is 3 to 5 h and the elimination half-life is 9 to 14 h.

With `C[N@+]1(CC2CC2)CC[C@]23c4c5ccc(O)c4O[C@H]2C(=O)CC[C@@]3(O)[C@H]1C5` [methylnaltrexone, Methylnaltrexone], the “time to restore normal bowel function” value in data set [5] (opioid bowel dysfunction) was 4 to 7 h. In addition, the elimination half-life is 3 h in data set [2] and 2 to 3 h in data set [2] (listed as Methylnaltrexone).

With `CN1CC[C@]23c4c5ccc(O)c4O[C@H]2[C@@H](O)C=C[C@H]3[C@H]1C5` [morphine], the “development of tolerance to antimotility effects” value in data set [4] is given as “not observed”.

For `C=C1CC[C@@]2(O)[C@H]3Cc4ccc(O)c5c4[C@@]2(CCN3CC2CC2)[C@H]1O5` [nalmefene, Nalmefene], the elimination half-life result in data set [2] is reported as “approximately 11 hours”.

`O=C1CC[C@@]2(O)[C@H]3Cc4ccc(O)c5c4[C@@]2(CCN3CC2CC2)[C@H]1O5` [naltrexone, Naltrexone]: in data set [2], the “time to peak plasma levels” value is “about 1 hours”.
